In patent US5886185A, “Polyamine-linked acridine dimers” (Development Center for Biotechnoloy, priority 1997, dated 1999):
Converted amounts (≈) assume the structure as drawn. Where a name gives a salt, the structure may show the parent alone. Blank lines part the entries; values can stand above or below the compound they belong to.

How the values were obtained:
pUC19 plasmid = assay: DNA intercalating assay (DNA band shift); type: binding
Protocol: A culture of JM83 bacteria containing a pUC19 plasmid was grown in 500 mL of ampicillin culture medium, and harvested by centrifugation at 4000 rpm for 15 minutes at 4° C. The pellets were lysed by alkali method and the DNA plasmids were collected as the lower band (corresponding to the closed circular DNA) of a centrifuge tube after CsCl-ethidium bromide gradient centrifugation. This collection method is described in, for example, Molecular Cloning: A Laboratory Manual, Cold Spring Harbor Laboratory Press, (1989). After removal of ethidium bromide from the DNA plasmids with 1-butanol saturated with water, the CsCl was removed by dialysis with TE (pH 8.0) buffer.
The pUC19 plasmid (1 μg in each reaction) was incubated with various concentrations of solutions containing different polyamine-linked acridine dimers for 30 minutes at 25° C. in 20 μL reaction mixtures (10 mM Tris-HCl, pH 7.4, 0.1 mM EDTA, and 5 mM NaCl). After reaction, the DNA mixture was run on a 1.0% agarose gel, which was stained with ethidium bromide and destained with distilled water. The shifts of the DNA bands were visualized using UV light and analyzed by photography. The DNA band shifting pattern formed a sigmoidal curve. The 50% shift concentration (SC50) corresponded to a 50% DNA band shift at the particular concentration, according to the curve of the DNA band-shifting photograph.

[1] = system: human COLO 205 solid tumors; assay: in vivo antitumor activity for human COLO 205 solid tumors; parameters: species or system human tumor in SCID mice
Protocol: SCID mice (16-18 g, 4-5 weeks old) were obtained from the animal center at the medical center of National Taiwan University, Taipei, R.O.C. and allowed to acclimate to their new environment for one week. The mice were given a sterilized pellet diet and sterilized water ad libitum, and housed under specific pathogene-free conditions in a temperature range between 23°-25° C. and a humidity of about 50±10%. The lighting was automatically operated on a 12 hour light/dark cycle. COLO 205 cells were obtained from ATCC, propagated in culture medium, and subcutaneously inoculated into the dorsal site of the mice.
After solid tumors were grown up to a size of about 1 gram, COLO 205F1 was isolated from the primary culture of the solid tumor and inoculated into the dorsal site of the mice. These tumors were grown to a size of approximately 200 mg (i.e., in a range of 100-300 mg). The mice were sorted according to body weight into groups including five mice. The compounds of Examples 5 and 6 were respectively resuspended in various solvents. The dosage of each compound was intraperitoneally (ip) or intravenously (iv) administered with different schedules. Tumor weights at the beginning of chemotherapy and at weekly intervals thereafter were estimated using two dimensional caliper measurements and calculated with the formula for an ellipsoid. Tumor weight was L X W^2 ×0.5, where L is the major axis and […] is the width of the tumor. The percentage of tumor growth (%TGI) was calculated according to the formula (1-(mean tumor weight of treated group/mean tumor weight of control group))×100. The tumor weights were corrected for tumor weight at the beginning of treatment. Tumor growth inhibition data were analyzed for statistical significance using the pooled variance t test. The tumor weights were monitored until termination of experiment.
Several studies of salt preparations, different formulations, and various administration routes and schedules were performed for the compounds of example 5 or 6 in order to identify their in vivo antitumor activities for human COLO 205 solid tumors. Tumor growth inhibitor studies of the compound of Example 5 were carried out in 1% carboxymethyl-cellulose against human COLO 205 solid tumors in SCID mice by ip administration with a schedule of Q4D×3 or by iv administration with a schedule of (Q1D×5)×2. Tumor growth inhibition studies of the compound at Example 6 were carried out in distilled H2 O against human COLO 205 solid tumor in SCID mice by iv administration with a schedule of (Q2D×3)×2 or in 2.5% cremophor against human COLO 205 solid tumor in SCID mice by iv administration with a schedule of (Q2D×3)×2.

water solubility = type: physicochemical; details: Table I

SMILES: O=c1[nH]cc(F)c(=O)[nH]1 [Example 5-Fu, reference compound]
DNA intercalating activity (pUC19 plasmid; negative control): did not show DNA intercalating activity

SMILES: COc1ccc2nc3cc(Cl)ccc3c(NCCCNCCCNc3c4ccc(Cl)cc4nc4ccc(OC)cc34)c2c1 [Example 5]
in vivo antitumor activity ([1]; 1% carboxymethyl-cellulose, ip, Q4D×3): did not show in vivo antitumor activity | in vivo antitumor activity ([1]; 1% carboxymethyl-cellulose, iv, (Q1D×5)×2): did not show in vivo antitumor activity

solubility (water solubility): 8000 µg/mL (≈ 13 mM)
SMILES: COc1ccc2nc3cc(Cl)ccc3c(NCCCNCCCNc3c4ccc(Cl)cc4nc4ccc(OC)cc34)c2c1 [Example 6]
in vivo antitumor activity, dose-response relationship ([1]; 2.5% cremophor, iv, (Q2D×3)×2): had the dose-response relationship of in vivo antitumor activity | in vivo antitumor activity ([1]; distilled H2O, iv, (Q2D×3)×2): demonstrated in vivo antitumor activity

solubility (water solubility): 10000 µg/mL
SMILES: COc1ccc2nc3cc(Cl)ccc3c(NCCCN(C)CCCNc3c4ccc(Cl)cc4nc4ccc(OC)cc34)c2c1 [Example 12 (acetic acid salt)]

SMILES: COc1cccc2c1C(=O)c1c(O)c3c(c(O)c1C2=O)C[C@@](O)(C(=O)CO)C[C@@H]3O[C@H]1C[C@H](N)[C@H](O)[C@H](C)O1 [adriarnycin, reference compound]
EC50 (pUC19 plasmid; pUC19 plasmid, 30 minutes, 25° C., pH 7.4, read-out: SC50 (50% shift concentration)): 10 to 15 µM
